In patent US20180161314A1, “Methods for Treating Hyperuricemia and Related Diseases” (Ardea Biosciences, Inc., priority 2010, published 2018):

What was measured:
xanthine oxidase = xanthine oxidase (Homo sapiens, UniProt P47989); conditions: cited from earlier work
[1] = in clinical studies; cited from earlier work
URAT1 = target: T1, URAT1 (Homo sapiens, UniProt Q96S37); conditions: in vitro; cited from earlier work
T1 sequence (Q96S37 1-553): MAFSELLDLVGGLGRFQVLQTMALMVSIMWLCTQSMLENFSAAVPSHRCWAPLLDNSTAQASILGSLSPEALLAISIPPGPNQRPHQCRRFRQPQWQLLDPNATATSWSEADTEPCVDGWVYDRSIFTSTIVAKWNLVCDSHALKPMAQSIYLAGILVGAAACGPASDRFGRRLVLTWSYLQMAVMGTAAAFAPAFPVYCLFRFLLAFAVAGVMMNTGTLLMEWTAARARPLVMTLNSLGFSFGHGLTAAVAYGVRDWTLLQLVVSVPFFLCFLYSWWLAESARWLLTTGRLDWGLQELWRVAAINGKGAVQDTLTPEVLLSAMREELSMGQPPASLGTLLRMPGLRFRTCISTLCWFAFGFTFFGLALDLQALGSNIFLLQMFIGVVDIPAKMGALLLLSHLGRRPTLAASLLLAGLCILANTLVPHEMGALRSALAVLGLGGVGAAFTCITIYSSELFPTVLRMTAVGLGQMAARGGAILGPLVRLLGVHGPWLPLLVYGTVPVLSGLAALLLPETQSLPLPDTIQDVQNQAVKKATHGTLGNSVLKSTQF

[2] = system: gout patients with hyperuricemia; assay: Febuxostat alone and in combination with drug 1, open-label study in gout patients with hyperuricemia (Examples 23, 24); assay type: in vivo, human; conditions: for Mean absolute sUA reduction / Mean sUA % change / Mean sUA level: ± SE
Experimental: Study Objectives • To measure the effect of febuxostat alone and in combination with drug 1 on serum urate concentrations. • To evaluate the safety and tolerability of drug 1 in combination with febuxostat.
The study is open-label in gout patients with hyperuricemia, involving 2 panels of ˜10-12 patients per panel. The panels may be enrolled simultaneously.
Panel 1 receives a once-daily dose of febuxostat 40 mg with ascending doses of drug 1. Panel 2 receives a once-daily dose of febuxostat 80 mg with ascending doses of drug 1.
• Day −14 to Day 28: colchicine prophylaxis; or • Day −7 to Day 28: colchicine prophylaxis (for patients not washing out from ULT) • Days 1-7: febuxostat 40 mg qd • Days 8-14: febuxostat 40 mg qd+drug 1 400 mg qd • Days 15-21: febuxostat 40 mg qd+drug 1 600 mg qd
• Day −14 to Day 28: colchicine prophylaxis; or • Day −7 to Day 28: colchicine prophylaxis (for patients not washing out from ULT) • Days 1-7: febuxostat 80 mg qd • Days 8-14: febuxostat 80 mg qd+drug 1 400 mg qd • Days 15-21: febuxostat 80 mg qd+drug 1 600 mg qd
Gout patients on a urate lowering therapy (ULT), have previously taken a ULT or who have never taken a ULT are eligible to participate. Screening procedures to determine patient eligibility are performed within approximately 21 days of the first dose of study drug (Day 1). Subjects currently on ULT wash-out for approximately 14 days before Day 1, and begin colchicine (Colcrys® 0.6 mg qd, URL Pharma) as prophylaxis for gout flares. During the washout period, subjects who have discontinued ULT may have their sUA re-tested (at least 7 days after washing out) to confirm eligibility. Subjects not on ULT begin colchicine administration at least 7 days prior to Day 1. […] Patients intolerant of colchicine during the screening period are considered screen failures and not enrolled. Prophylactic administration of colchicine continues for 7 days after the last dose of study medication.
Eligible patients report to the study center early morning on Days −1, 7, 14, and 21 (or the afternoon/evening the day before). Serial blood samples are collected on Days −1, 7, 14, and 21. 24-hour urine collection is obtained on Days −1, 7, 14, and 21. Spot urine assessments also obtained on Day −1.
Study medication is administered to each patient and taken orally every morning with approximately 240 mL of water, at approximately the same time of the morning every day, and approximately 30 minutes after finishing a full breakfast (approximately 650 Kcal and 35% fat); the breakfast is standardized on Days −1 to 21.
Inclusion Criteria • Patient is male or post-menopausal or surgically sterile female. • Patient is 18-80 years of age, inclusive. • Patient meets one or more criteria for the diagnosis of gout as per the American Rheumatism Association (ARA) Criteria for the Classification of Acute Arthritis of Primary Gout (Appendix C). • Patient sUA≥8 mg/dL at screening. • Patient willing and able to give informed consent and adhere to visit/protocol schedules • No clinically relevant abnormalities in blood pressure (BP), heart rate (HR), body temperature and respiratory rate as per Investigator's judgment.
Subject urate serum levels are recorded, and any safety concerns assessed (by adverse events, clinical laboratory test results, vital signs, 12-lead ECGs, and physical examinations). […] Urate serum concentrations are evaluated for treatment- and/or time-dependent changes relative to baseline (Day −1), and may be expressed both in standard units (mg/dL) and as changes from baseline (e.g., percent change, absolute change, maximal change, and time or day of maximal change).
Drug 1 was tested according to the clinical trial protocol described in Example 23.
Serum urate levels were measured and absolute and % reduction levels from baseline calculated. Mean levels, mean absolute reductions (mg/dL, all data SE) and % change results are presented in the table below and in FIGS. 10 and 11. […]

[3] = FBX 40 mg alone, FBX 40 mg + Drug 1 400 mg
[4] = FBX 40 mg qd alone days 1-7, FBX 40 mg + Drug 1 400 mg qd days 8-14
[5] = FBX 80 mg alone, FBX 80 mg + Drug 1 400 mg
[6] = FBX 80 mg qd alone days 1-7, FBX 80 mg + Drug 1 400 mg qd days 8-14

Chain of xanthine oxidase (P47989 whole entry, species assumed): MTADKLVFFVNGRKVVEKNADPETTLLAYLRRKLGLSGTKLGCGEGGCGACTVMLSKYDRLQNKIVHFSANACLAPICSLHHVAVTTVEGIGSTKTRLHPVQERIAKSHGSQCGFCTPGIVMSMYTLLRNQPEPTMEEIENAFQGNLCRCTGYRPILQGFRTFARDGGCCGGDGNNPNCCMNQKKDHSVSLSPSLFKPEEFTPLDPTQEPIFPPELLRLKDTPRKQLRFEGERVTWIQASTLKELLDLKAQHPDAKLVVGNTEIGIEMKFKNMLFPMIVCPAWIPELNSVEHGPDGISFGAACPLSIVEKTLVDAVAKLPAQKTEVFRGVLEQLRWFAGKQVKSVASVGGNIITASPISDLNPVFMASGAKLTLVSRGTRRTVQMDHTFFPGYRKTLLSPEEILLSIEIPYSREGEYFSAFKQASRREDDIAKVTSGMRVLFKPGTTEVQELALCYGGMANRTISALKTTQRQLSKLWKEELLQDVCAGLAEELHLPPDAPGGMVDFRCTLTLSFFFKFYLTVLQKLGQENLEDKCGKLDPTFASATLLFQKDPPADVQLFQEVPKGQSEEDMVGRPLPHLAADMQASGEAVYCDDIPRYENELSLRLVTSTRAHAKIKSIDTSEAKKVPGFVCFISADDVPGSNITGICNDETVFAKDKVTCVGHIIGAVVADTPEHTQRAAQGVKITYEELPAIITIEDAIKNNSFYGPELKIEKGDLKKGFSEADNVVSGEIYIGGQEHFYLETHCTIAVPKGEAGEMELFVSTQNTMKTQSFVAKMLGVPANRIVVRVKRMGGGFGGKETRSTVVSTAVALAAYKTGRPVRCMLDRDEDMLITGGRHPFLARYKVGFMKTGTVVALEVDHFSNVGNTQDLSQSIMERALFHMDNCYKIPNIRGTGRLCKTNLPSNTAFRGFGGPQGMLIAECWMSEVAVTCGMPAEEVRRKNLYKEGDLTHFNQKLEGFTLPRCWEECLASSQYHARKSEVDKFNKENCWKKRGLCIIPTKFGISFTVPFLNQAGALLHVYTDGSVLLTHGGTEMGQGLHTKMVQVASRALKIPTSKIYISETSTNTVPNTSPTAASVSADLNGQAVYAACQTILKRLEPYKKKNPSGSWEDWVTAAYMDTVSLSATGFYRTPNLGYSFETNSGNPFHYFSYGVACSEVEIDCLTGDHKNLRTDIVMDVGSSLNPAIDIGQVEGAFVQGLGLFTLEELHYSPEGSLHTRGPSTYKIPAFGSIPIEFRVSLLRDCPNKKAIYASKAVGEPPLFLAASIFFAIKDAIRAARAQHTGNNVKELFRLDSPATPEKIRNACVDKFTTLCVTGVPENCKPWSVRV

| Compound | Inhibition of xanthine oxidase (xanthine oxidase) | Route of excretion [1] | Effect on the URAT1-mediated uptake of uric acid (URAT1) | % Response rate for sUA <3 mg/dL [2, 3] [%] | % Response rate for sUA <4 mg/dL [2, 3] [%] | % Response rate for sUA <5 mg/dL [2, 3] [%] | % Response rate for sUA <6 mg/dL [2, 3] [%] | Mean absolute sUA reduction [2, 4] [mg/dL] | Mean sUA % change [2, 4] [%] | Mean sUA level [2, 4] [mg/dL] | % Response rate for sUA <3 mg/dL [2, 5] [%] | % Response rate for sUA <4 mg/dL [2, 5] [%] | % Response rate for sUA <5 mg/dL [2, 5] [%] | % Response rate for sUA <6 mg/dL [2, 5] [%] | Mean absolute sUA reduction [2, 6] [mg/dL] | Mean sUA % change [2, 6] [%] | Mean sUA level [2, 6] [mg/dL] |
| --- | --- | --- | --- | --- | --- | --- | --- | --- | --- | --- | --- | --- | --- | --- | --- | --- | --- |
| O=C(O)CSc1nnc(Br)n1-c1ccc(C2CC2)c2ccccc12 [Drug 1, Sodium 2-(5-bromo-4-(4-cyclopropylnaphthalen-1-yl)-4H-1,2,4-triazol-3-ylthio)acetate] | does not significantly inhibit | preferentially excreted through the kidney, reaching high concentrations in urine | concentration-dependent inhibitory effect | – | – | – | – | – | – | – | – | – | – | – | – | – | – |
| Cc1nc(-c2ccc(OCC(C)C)c(C#N)c2)sc1C(=O)O [Febuxostat, 2-(3-Cyano-4-isobutoxyphenyl)-4-methyl-1,3-thiazole-5-carboxylic acid, reference compound] | – | – | – | 0 | 0 | 17 | 67 | -3.2 ± 0.21 | −35.7 ± 2.0 | 5.6 ± 0.24 | 0 | 0 | 22 | 56 | -4.6 ± 0.51 | −44.2 ± 3.5 | 5.7 ± 0.29 |
